The results in this text go back to ChEMBL document CHEMBL2375251, “Anticancer activity of novel hybrid molecules containing 5-benzylidene thiazolidine-2,4-dione” (Eur J Med Chem, 2013).

Holding throughout (assay type): functional, cell-based
Experiment [1] relates to FM3A. Description: Cytotoxicity against mouse FM3A cells after 2 days by Coulter counter analysis. As to conditions: 48 h.
Experiment [2] relates to HeLa. The experiment is described as follows: Cytotoxicity against human HeLa cells after 4 days by Coulter counter analysis. As to conditions: 96 h.
For experiment [3], the system named is CCRF-CEM. Description: Cytotoxicity against human CEM cells after 3 days by Coulter counter analysis. The following applies: 72 h.
Experiment [4] deals with L1210. The experiment is described as follows: Cytotoxicity against mouse L1210 cells after 2 days by Coulter counter analysis. As to conditions: L1210, 48 h.

As to `Nc1cccc(/C=C2\SC(=O)N(CCc3ccccc3)C2=O)c1`, the IC50 (commonly the midpoint of a concentration-inhibition curve) in experiment [1] was determined as 68 µM; in experiment [2], 250 µM; in experiment [3], 106 µM; in experiment [4], 142 µM.
On the same counts, the results for `Nc1cccc(/C=C2\SC(=O)N(Cc3ccc(Cl)cc3)C2=O)c1` are 246 µM, over 250 µM, over 250 µM and 218 µM.
For `Nc1cccc(/C=C2\SC(=O)N(Cc3cccc(Cl)c3)C2=O)c1`, the IC50 was 164 µM in experiment [1], 250 µM in experiment [2], 195 µM in experiment [3] and 211 µM in experiment [4].
As to `N[C@@H](Cc1ccc(N(CCCl)CCCl)cc1)C(=O)O` [MELPHALAN], the IC50 amounted to 3.6 µM in experiment [1] and 3.5 µM in experiment [3].
Consider `Nc1ccc(/C=C2\SC(=O)N(Cc3ccc(Cl)cc3)C2=O)cc1`, for which the IC50 turned out to be 60 µM in experiment [1], 77 µM in experiment [2], 87 µM in experiment [3] and 37 µM in experiment [4].
For the compound `C=C(Br)C(=O)Nc1ccc(/C=C2\SC(=O)N(Cc3ccc(F)cc3)C2=O)cc1`, the IC50 in experiment [1] amounted to 4.6 µM; in experiment [2] it was 2 µM; in experiment [3], 2.4 µM; in experiment [4], 2.2 µM.
In the same order, the values of `C=C(Br)C(=O)Nc1cccc(/C=C2\SC(=O)N(Cc3ccc(C(C)(C)C)cc3)C2=O)c1` are 5.2 µM, 2.8 µM, 3 µM and 3.2 µM.
With `Nc1ccc(/C=C2\SC(=O)N(Cc3cccc(Cl)c3)C2=O)cc1`, the IC50 in experiment [1] worked out at 10 µM; in experiment [2], 24 µM; in experiment [3], 18 µM; in experiment [4] it was 4.7 µM.
On to `CCN1C(=O)S/C(=C\c2ccc(N)cc2)C1=O`, for which the IC50 in experiment [1] is 76 µM; in experiment [2] it was 108 µM; in experiment [3], 91 µM; in experiment [4], 82 µM.
On to `C=C(Br)C(=O)Nc1cccc(/C=C2\SC(=O)N(Cc3cccc(Cl)c3)C2=O)c1`, for which the IC50 in experiment [1] stood at 1.7 µM; in experiment [2] it was 2.5 µM; in experiment [3], 1.4 µM; in experiment [4], 1.1 µM.
As to `Nc1cccc(/C=C2\SC(=O)N(Cc3ccc(C(F)(F)F)cc3)C2=O)c1`, the IC50 in experiment [1], in experiment [2], in experiment [3] and in experiment [4] was over 250 µM each time.
As to `C=C(Br)C(=O)Nc1ccc(/C=C2\SC(=O)N(Cc3cccc(F)c3)C2=O)cc1`, the IC50 turned out to be 4 µM in experiment [1], 5.9 µM in experiment [2], 3.2 µM in experiment [3] and 1.2 µM in experiment [4].
On the same counts, the results for `Nc1cccc(/C=C2\SC(=O)N(Cc3ccccc3)C2=O)c1` are over 250 µM, over 250 µM, over 250 µM and 233 µM.
For the compound `C=C(Br)C(=O)Nc1ccc(/C=C2\SC(=O)N(Cc3cccc(Cl)c3)C2=O)cc1`, the IC50 in experiment [1] turned out to be 6.1 µM; in experiment [2], 8.9 µM; in experiment [3] it was 3.7 µM; in experiment [4] it was 3.4 µM.
As to `Cc1ccc(CN2C(=O)S/C(=C\c3ccc(N)cc3)C2=O)cc1`, the IC50 is over 250 µM in experiment [1], over 250 µM in experiment [2], over 250 µM in experiment [3] and 94 µM in experiment [4].
On to `C=C(Br)C(=O)Nc1ccc(/C=C2\SC(=O)N(Cc3ccc(C(F)(F)F)cc3)C2=O)cc1`, for which the IC50 was found to be 23 µM in experiment [1], 13 µM in experiment [2], 8 µM in experiment [3] and 12 µM in experiment [4].
With `C=C(Br)C(=O)Nc1ccc(/C=C2\SC(=O)N(Cc3ccccc3)C2=O)cc1`, the IC50 in experiment [1] was 3 µM; in experiment [2], 1 µM; in experiment [3], 2.3 µM; in experiment [4], 1.1 µM.
Turning to `C=C(Br)C(=O)Nc1cccc(/C=C2\SC(=O)N(CCc3ccccc3)C2=O)c1`, the IC50 in experiment [1] stood at 2.2 µM; in experiment [2], 3.5 µM; in experiment [3], 0.94 µM; in experiment [4], 1.3 µM.
In the same order, the values of `C=C(Br)C(=O)Nc1ccc(/C=C2\SC(=O)N(CC)C2=O)cc1` are 2.3 µM, 1.4 µM, 0.87 µM and 0.5 µM.
As to `Nc1cccc(/C=C2\SC(=O)N(Cc3ccc(F)cc3)C2=O)c1`, the IC50 came out at 140 µM in experiment [1], 86 µM in experiment [2], 87 µM in experiment [3] and 142 µM in experiment [4].
Consider `C=C(Br)C(=O)Nc1ccc(/C=C2\SC(=O)N(CCc3ccccc3)C2=O)cc1`, for which the IC50 in experiment [1] came to 5.5 µM; in experiment [2], 4.5 µM; in experiment [3], 4.2 µM; in experiment [4], 2.9 µM.
Consider `CC(C)(C)c1ccc(CN2C(=O)S/C(=C\c3cccc(N)c3)C2=O)cc1`, for which the IC50 in experiment [1] amounted to 188 µM; in experiment [2] it was 145 µM; in experiment [3], 165 µM; in experiment [4], 223 µM.
As for `C=C(Br)C(=O)Nc1ccc(/C=C2\SC(=O)N(Cc3ccc(C(C)(C)C)cc3)C2=O)cc1`, the IC50 in experiment [1] came out at 4 µM; in experiment [2] it was 2.7 µM; in experiment [3], 0.83 µM; in experiment [4], 1.6 µM.
Turning to `C=C(Br)C(=O)Nc1ccc(/C=C2\SC(=O)N(Cc3ccc(C)cc3)C2=O)cc1`, the IC50 in experiment [1] was found to be 6.1 µM; in experiment [2] it was 8.9 µM; in experiment [3], 3.7 µM; in experiment [4] it was 3.4 µM.
In the same order, the values of `Nc1ccc(/C=C2\SC(=O)N(Cc3ccccc3)C2=O)cc1` are 24 µM, 46 µM, 42 µM and 38 µM.
Consider `Nc1cccc(/C=C2\SC(=O)N(Cc3cccc(F)c3)C2=O)c1`, for which the IC50 in experiment [1] is over 250 µM; in experiment [2], over 250 µM; in experiment [3], 250 µM; in experiment [4], 199 µM.
For the compound `Nc1ccc(/C=C2\SC(=O)N(Cc3ccc(C(F)(F)F)cc3)C2=O)cc1`, the IC50 in experiment [1] was found to be 134 µM; in experiment [2] it was 96 µM; in experiment [3], 32 µM; in experiment [4], 6 µM.
On to `Nc1ccc(/C=C2\SC(=O)N(CCc3ccccc3)C2=O)cc1`, for which the IC50 in experiment [1] was 215 µM; in experiment [2], over 250 µM; in experiment [3], over 250 µM; in experiment [4], 217 µM.
Turning to `C=C(Br)C(=O)Nc1cccc(/C=C2\SC(=O)N(Cc3ccc(C)cc3)C2=O)c1`, the concentration for half-maximal inhibition (IC50) in experiment [1] was determined as 1 µM; in experiment [2], 1.2 µM; in experiment [3], 1.2 µM; in experiment [4], 0.6 µM.
In the case of `Nc1ccc(/C=C2\SC(=O)N(Cc3ccc(F)cc3)C2=O)cc1`, the half-maximal inhibitory concentration (IC50) in experiment [1] came out at 36 µM; in experiment [2], 186 µM; in experiment [3], 111 µM; in experiment [4], 24 µM.
As to `Nc1ccc(/C=C2\SC(=O)N(Cc3cccc(F)c3)C2=O)cc1`, the half-maximal inhibitory concentration (IC50) in experiment [1] was found to be 121 µM; in experiment [2], 250 µM; in experiment [3] it was 116 µM; in experiment [4], 100 µM.
Consider `C=C(Br)C(=O)Nc1cccc(/C=C2\SC(=O)N(Cc3ccc(Cl)cc3)C2=O)c1`, for which the IC50 in experiment [1] is 1.6 µM; in experiment [2] it was 2.7 µM; in experiment [3] it was 1.4 µM; in experiment [4] it was 0.94 µM.
On to `C=C(Br)C(=O)Nc1ccc(/C=C2\SC(=O)N(Cc3ccc(Cl)cc3)C2=O)cc1`, for which the IC50 in experiment [1] came out at 5.1 µM; in experiment [2], 2.3 µM; in experiment [3], 2.8 µM; in experiment [4] it was 3.4 µM.
Turning to `Cc1ccc(CN2C(=O)S/C(=C\c3cccc(N)c3)C2=O)cc1`, the IC50 in experiment [1] was 158 µM; in experiment [2] it was 98 µM; in experiment [3], over 250 µM; in experiment [4], 176 µM.
As to `CC(C)(C)c1ccc(CN2C(=O)S/C(=C\c3ccc(N)cc3)C2=O)cc1`, the IC50 in experiment [1] worked out at 80 µM; in experiment [2], 53 µM; in experiment [3], 66 µM; in experiment [4], 94 µM.
For the compound `CN1C(=O)S/C(=C\c2ccc(N)cc2)C1=O`, the IC50 in experiment [1] is 107 µM; in experiment [2], 97 µM; in experiment [3], 62 µM; in experiment [4], 99 µM.
With `C=C(Br)C(=O)Nc1cccc(/C=C2\SC(=O)N(Cc3cccc(F)c3)C2=O)c1`, the IC50 in experiment [1] was 0.69 µM; in experiment [2], 2.7 µM; in experiment [3], 0.69 µM; in experiment [4], 0.59 µM.
As to `C=C(Br)C(=O)Nc1ccc(/C=C2\SC(=O)N(C)C2=O)cc1`, the IC50 in experiment [1] worked out at 0.75 µM; in experiment [2], 0.87 µM; in experiment [3], 0.36 µM; in experiment [4] it was 0.19 µM.
